The text below walks through data of patent US11382921B2, “Use of compounds in preparation of a medicament for treatment of hemorrhagic stroke” (priority 2017, dated 2022).

Assay [1] relates to C57B mouse model of cerebral hemorrhage. The experiment in a line: Neurobehavioral scoring (circle test, adhesive paper test, modified Garcia score) in collagenase-induced intracerebral hemorrhage model. The format is in vivo. As to conditions: C57B mice, 60 mg/kg i.p. 1 h after modeling. Here is the method:
FIG. 2. […] A. Circle test; Adhesive paper test; B. Time duration for contacting adhesive paper; C. Time consumption to tear off adhesive paper; *p<0.05, ***p<0.001, n=12˜23 animals/group. con: normal; sham: sham-operated group; ICH: cerebral hemorrhage model; vehicle: solvent.
FIG. 3. […] Modified Garcia score (A-D) is used to evaluate somatosensory and motor function at 24 hours after cerebral hemorrhage in C57B mice: A. Nose hair contact test; B. Limb symmetry test; C. Forelimb walking test, D. Overall nerve function Score; n=12˜23 animals/group, *p<0.05, **p<0.01, ***p<0.001. con: normal; sham: sham-operated group; ICH: cerebral hemorrhage model; vehicle: solvent.
(§1) 112 clean grade health C57 male mice (8˜10 week, 20-22 g) were purchased from Beijing Vital River Laboratory Animal Technology Co. Ltd. Feeding conditions: 22° C.˜26° C., humidity 50%˜60%. The mice were grouped, fed with standard feed and purified water, and subjected to adaptive feeding for 1 week.
(§2) Establishment of Intracerebral hemorrhage model: After weighing body weight of mice, anesthesia was induced by 5% enflurane, and maintained by 2% enflurane mixed with 70% N2O and 30% O2. Mice were fixed on a stereotactic apparatus in the prone position and disinfected topically. The skin of the animals was incised to expose the skull for drilling. 0.3 μl of 0.35UVII collagenase was slowly injected with a micro sampler. The needle was kept for 5 min then slowly pulled out for 5 min, and the skull drilling was covered by bone glue. Animals were sutured, and subjected to routine disinfection. In the sham operation group, the needle was inserted in the same way, but without injection. The solvent or Triol was administered by intraperitoneal injection at 60 mg/kg 1 h after modeling.
C57 mice were divided into 5 groups using random number method, namely normal control group (n=12), sham operation group (n=12), cerebral hemorrhage group (n=26), cerebral hemorrhage+solvent intraperitoneal injection 1 h after modeling group (n=26), and cerebral hemorrhage+Triol intraperitoneal injection 1 h after modeling group (n=26).
The neurological function was measured 24 hours after the cerebral hemorrhage model was established.

For assay [2] the test system is unchanged. Put plainly: Determination of intracerebral hemorrhage (hemorrhage area, brain hemoglobin content) in collagenase-induced intracerebral hemorrhage model. The class given is in vivo. The following applies: C57B mice. The procedure: as §1
as §2, with “modeling. […]” for “modeling.”
chloral hydrated peritoneal was injected intraperitoneally for anesthesia at 24 hours after modeling. […] The hemoglobin content in the brain was measured with a hemoglobin detection kit.

In the case of `C[C@@]12CCCC1C1C[C@@H](O)[C@@]3(O)C[C@@H](O)CC[C@]3(C)C1CC2` (stereo partly drawn) [Triol, 5α-androst-3β,5,6β-triol], the “adhesive paper test: time consumption to remove adhesive paper” value in assay [1] (24 h, p<0.001 (FIG. 2C)) is recorded as “significantly reduced”. Also, the “modified Garcia score: beard touch avoidance (nose hair contact test)” value in assay [1] (24 h, p<0.001 (FIG. 3A)) was “significantly restored”. Further, the “neurological function scores (overall, modified Garcia)” value in assay [1] (24 h, p<0.001 (FIG. 3D)) is given as “significantly improved”. For the same molecule, the “modified Garcia score: symmetry of the limbs' movement” value in assay [1] (24 h, p<0.01 (FIG. 3B)) was “significantly improved”. Moreover, the “adhesive paper test: time duration for contacting adhesive paper” value in assay [1] (24 h, p<0.05 (FIG. 2B)) was “significantly reduced”. In assay [1] (24 h, p<0.05 (FIG. 3C)), the “modified Garcia score: forelimb walking” value is “significantly improved”. Further, the “circle test: time taken to go out of the center of the circle to any point of the circle edge” value in assay [1] (24 h after cerebral hemorrhage (FIG. 2A)) is given as “has a tendency to decrease”. Also, the “hemoglobin content of the hemorrhagic hemisphere (amount of hemorrhage)” value in assay [2] (60 mg/kg i.p. 1 h after modeling, 24 h, vs cerebral hemorrhage model group, p<0.01 (FIG. 1B)) is recorded as “decreased significantly”. Besides, the “hemorrhage area (volume) of the hemisphere brain with collagenase injection” value in assay [2] (Triol 60 mg/kg intraperitoneal 1 h after modeling, 24 h later (FIG. 1A)) is recorded as “significantly reduced”.
